Source: paper PMC5362808, “Discovery of multi-target receptor tyrosine kinase inhibitors as novel anti-angiogenesis agents” (Scientific Reports, 2017)
Like-named read-outs stand apart in the source and are kept apart here.

Key:
[1] = target: TIE-2 (Homo sapiens, UniProt Q02763); experiment: ADP-Glo kinase inhibition assay, TIE-2; assay type: biochemical
Experimental: (§1) Tyrosine kinase inhibition were tested by luminescent ADP-Glo^TM assay.
(§2) The kinase assay was performed in duplicate in a reaction mixture of final volume of 10 μL. […] The assay plate was incubated at 30 °C for 1 h. After the plate was cooled at room temperature for 5 min, 5 μL of ADP-Glo reagent was added into each well to stop the reaction and consume the remaining […] within 40 min. At the end, 10 μL of kinase detection reagent was added into the well and incubated for 30 min to produce a luminescence signal. […] The assay plate was incubated at 30 °C for 4 h. After the plate was cooled at room temperature for 5 min, 5 μL of ADP-Glo reagent was added into each well to stop the reaction and consume the remaining […] within 1 h. At the end, 10 μL of kinase detection reagent was added into the well and incubated for 30 min to produce a luminescence signal. The luminescence was read by VICTOR-X multi- label plate reader. The signal was correlated with the amount of […] present in the reaction and was […] with the kinase activity.

[2] = tested on: EA.hy926; experiment: MTT anti-proliferative assay against human vascular endothelial cell; assay type: cell-based; conditions: EA.hy 926, 48 h treatment
Experimental: Growth inhibitory activities were evaluated against human vascular endothelial cell (EA.hy926)[25]. Thirteen selected title compounds were tested using MTT assay to assess cell proliferation. Exponentially growing cells were harvested and plated in 96-well plates at a concentration of […] cells/well, and then incubated for 24 h at 37 °C. The cells were treated with title compounds respectively at various concentrations for 48 h. Then, […] fresh MTT (5 mg/mL) was added to each well and incubated for 4 h at 37 °C. Supernatant was discarded, and […] DMSO was added to each well. Absorbance values were determined by a microplate reader (Bio-Rad Instruments) at 490 nm. The IC50 values were calculated according to inhibition ratios.

[3] = target: VEGFR-2 (Homo sapiens, UniProt P35968); experiment: ADP-Glo kinase inhibition assay, VEGFR-2; assay type: biochemical; conditions: read-out: VEGFR-2 inhibitory activity (IC50)
Experimental: as §1, §2

[4] = target: T1, EphB4 (Homo sapiens, UniProt P54760); experiment: ADP-Glo kinase inhibition assay, EphB4; assay type: biochemical; conditions: read-out: EphB4 inhibitory activity (IC50)
T1 sequence (P54760 16-987): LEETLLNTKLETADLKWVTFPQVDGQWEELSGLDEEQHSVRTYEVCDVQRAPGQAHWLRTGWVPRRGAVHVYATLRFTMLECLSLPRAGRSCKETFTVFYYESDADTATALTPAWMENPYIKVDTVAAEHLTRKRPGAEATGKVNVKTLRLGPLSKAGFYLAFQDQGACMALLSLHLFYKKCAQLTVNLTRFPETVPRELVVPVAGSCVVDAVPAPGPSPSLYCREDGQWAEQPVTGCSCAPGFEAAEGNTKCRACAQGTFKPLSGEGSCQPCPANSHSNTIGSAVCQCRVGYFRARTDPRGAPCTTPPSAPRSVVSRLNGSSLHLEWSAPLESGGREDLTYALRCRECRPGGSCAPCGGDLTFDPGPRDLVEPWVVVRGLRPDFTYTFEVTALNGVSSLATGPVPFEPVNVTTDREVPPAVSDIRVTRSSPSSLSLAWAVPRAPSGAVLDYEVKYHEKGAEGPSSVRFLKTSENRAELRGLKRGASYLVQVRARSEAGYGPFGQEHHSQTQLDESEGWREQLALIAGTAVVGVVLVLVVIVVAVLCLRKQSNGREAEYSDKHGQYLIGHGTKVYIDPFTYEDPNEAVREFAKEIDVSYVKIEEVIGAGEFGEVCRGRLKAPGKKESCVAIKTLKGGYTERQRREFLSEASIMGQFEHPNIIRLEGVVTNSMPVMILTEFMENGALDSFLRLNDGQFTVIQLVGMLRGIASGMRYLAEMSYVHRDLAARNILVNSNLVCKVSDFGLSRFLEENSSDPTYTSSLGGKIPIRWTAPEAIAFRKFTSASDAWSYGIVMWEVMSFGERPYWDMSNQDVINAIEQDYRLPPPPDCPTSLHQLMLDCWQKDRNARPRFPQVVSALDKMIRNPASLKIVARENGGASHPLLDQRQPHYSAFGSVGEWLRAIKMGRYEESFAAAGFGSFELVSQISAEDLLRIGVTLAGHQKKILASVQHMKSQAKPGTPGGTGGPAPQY
Experimental: as §1, §2

[5] = target: B-Raf (Homo sapiens, UniProt P15056); experiment: Kinase selectivity assay, B-Raf; assay type: biochemical; conditions: Table 3 selectivity profile
[6] = target: FGFR-1 (Homo sapiens, UniProt P11362); experiment: Kinase selectivity assay, FGFR-1; assay type: biochemical; conditions: Table 3 selectivity profile
[7] = target: Src (Homo sapiens, UniProt P12931); experiment: Kinase selectivity assay, Src; assay type: biochemical; conditions: Table 3 selectivity profile
[8] = target: EGFR (Homo sapiens, UniProt P00533); experiment: Kinase selectivity assay, EGFR; assay type: biochemical; conditions: Table 3 selectivity profile
[9] = Table 1, ATP 50 μM, read-out: Tie-2 inhibitory activity (IC50)
[10] = Table 2, ATP 50 μM, read-out: TIE-2 inhibitory activity (IC50)

Chain of TIE-2 (Q02763 23-1124): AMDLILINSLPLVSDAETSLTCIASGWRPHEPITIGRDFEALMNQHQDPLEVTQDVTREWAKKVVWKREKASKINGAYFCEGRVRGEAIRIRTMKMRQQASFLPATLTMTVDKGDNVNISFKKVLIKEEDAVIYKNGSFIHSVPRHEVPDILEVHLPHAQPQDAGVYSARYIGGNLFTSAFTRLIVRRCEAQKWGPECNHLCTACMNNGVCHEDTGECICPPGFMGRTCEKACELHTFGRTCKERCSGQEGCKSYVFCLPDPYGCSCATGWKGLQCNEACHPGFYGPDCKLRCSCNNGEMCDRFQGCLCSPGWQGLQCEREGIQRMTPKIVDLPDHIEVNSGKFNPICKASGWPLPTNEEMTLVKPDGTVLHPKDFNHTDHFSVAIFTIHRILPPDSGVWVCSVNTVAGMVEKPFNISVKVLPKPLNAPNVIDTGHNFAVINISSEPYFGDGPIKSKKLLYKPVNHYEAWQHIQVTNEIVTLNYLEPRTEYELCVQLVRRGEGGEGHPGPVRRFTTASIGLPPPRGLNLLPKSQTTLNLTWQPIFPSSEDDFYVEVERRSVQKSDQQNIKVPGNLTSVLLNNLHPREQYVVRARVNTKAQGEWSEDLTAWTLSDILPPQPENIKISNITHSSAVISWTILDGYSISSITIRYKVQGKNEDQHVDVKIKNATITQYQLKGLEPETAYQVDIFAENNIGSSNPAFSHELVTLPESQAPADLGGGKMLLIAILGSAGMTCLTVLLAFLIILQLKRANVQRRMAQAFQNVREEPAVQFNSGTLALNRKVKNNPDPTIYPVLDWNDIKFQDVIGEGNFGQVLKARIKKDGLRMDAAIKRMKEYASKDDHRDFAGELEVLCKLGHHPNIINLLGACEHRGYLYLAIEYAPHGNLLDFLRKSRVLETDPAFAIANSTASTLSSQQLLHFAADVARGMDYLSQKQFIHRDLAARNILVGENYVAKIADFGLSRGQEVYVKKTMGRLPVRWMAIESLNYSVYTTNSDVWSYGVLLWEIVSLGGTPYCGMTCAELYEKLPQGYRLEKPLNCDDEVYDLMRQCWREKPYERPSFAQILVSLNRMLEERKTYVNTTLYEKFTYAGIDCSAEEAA
Chain of VEGFR-2 (P35968 20-1356): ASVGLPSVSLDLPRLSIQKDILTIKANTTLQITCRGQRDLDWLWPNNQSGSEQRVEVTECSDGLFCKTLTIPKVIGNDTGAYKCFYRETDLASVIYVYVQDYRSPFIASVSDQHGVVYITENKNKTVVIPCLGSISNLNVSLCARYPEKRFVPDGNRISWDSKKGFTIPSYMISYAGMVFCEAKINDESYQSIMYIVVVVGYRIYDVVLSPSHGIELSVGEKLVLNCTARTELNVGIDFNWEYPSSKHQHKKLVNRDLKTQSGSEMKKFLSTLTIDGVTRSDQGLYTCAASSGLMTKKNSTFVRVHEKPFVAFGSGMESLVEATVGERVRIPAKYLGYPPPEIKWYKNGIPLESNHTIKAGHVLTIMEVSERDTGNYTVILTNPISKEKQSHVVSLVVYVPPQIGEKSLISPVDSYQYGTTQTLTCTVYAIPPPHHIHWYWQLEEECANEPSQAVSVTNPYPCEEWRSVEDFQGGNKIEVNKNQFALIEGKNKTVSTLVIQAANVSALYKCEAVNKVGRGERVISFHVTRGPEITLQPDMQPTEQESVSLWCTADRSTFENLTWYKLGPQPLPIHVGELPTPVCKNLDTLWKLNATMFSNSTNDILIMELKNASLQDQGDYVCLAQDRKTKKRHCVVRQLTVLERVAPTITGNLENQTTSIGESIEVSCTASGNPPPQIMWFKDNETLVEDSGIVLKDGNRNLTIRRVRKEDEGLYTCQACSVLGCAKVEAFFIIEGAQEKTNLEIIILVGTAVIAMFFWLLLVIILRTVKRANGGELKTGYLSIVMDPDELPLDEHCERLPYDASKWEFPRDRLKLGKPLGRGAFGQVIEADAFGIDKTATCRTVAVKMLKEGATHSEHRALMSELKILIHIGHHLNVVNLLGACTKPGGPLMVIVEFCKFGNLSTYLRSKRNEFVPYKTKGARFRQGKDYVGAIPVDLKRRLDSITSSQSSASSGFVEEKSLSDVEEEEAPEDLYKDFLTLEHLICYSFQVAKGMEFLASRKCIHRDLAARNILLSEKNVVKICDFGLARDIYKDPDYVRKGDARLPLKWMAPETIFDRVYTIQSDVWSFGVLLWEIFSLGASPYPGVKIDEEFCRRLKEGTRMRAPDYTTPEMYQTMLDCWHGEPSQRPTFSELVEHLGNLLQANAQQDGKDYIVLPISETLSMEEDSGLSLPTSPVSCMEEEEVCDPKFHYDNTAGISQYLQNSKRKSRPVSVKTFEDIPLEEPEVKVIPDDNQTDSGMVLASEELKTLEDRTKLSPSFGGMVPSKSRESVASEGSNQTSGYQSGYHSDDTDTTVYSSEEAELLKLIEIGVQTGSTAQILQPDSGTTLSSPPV
Chain of B-Raf (P15056 whole entry, species assumed): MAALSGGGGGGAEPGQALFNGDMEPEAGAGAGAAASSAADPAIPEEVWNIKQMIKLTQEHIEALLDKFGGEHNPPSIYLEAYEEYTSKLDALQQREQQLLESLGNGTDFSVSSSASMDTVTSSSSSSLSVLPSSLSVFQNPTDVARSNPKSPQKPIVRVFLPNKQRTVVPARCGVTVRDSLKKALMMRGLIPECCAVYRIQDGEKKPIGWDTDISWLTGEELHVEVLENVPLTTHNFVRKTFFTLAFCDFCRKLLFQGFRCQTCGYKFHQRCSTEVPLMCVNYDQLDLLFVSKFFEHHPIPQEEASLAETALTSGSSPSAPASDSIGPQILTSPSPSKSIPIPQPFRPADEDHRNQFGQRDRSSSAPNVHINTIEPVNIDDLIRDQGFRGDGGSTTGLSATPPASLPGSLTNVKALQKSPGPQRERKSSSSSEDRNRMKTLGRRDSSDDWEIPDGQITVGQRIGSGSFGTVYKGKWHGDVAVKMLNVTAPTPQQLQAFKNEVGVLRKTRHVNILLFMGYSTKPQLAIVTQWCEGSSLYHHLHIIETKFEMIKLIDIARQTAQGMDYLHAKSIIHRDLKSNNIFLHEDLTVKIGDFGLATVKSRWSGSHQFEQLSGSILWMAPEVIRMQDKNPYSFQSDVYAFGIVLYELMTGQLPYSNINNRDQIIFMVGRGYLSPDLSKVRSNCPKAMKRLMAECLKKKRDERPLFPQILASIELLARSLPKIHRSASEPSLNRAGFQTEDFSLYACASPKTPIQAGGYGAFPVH
Chain of Src (P12931 whole entry, species assumed): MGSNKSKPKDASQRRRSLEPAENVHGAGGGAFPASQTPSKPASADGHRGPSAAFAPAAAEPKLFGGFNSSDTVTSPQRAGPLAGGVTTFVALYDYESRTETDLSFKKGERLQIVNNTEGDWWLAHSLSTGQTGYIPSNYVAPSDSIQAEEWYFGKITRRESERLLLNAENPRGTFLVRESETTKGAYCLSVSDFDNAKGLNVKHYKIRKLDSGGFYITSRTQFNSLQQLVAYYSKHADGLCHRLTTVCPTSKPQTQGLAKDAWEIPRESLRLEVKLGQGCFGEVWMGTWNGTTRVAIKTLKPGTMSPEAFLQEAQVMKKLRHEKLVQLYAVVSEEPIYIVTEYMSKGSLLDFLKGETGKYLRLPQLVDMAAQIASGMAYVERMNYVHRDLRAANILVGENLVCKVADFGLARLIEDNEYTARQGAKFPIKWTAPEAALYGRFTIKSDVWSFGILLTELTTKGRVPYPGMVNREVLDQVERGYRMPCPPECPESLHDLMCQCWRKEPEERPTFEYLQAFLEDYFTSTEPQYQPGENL
Chain of FGFR-1 (P11362 22-822, species assumed): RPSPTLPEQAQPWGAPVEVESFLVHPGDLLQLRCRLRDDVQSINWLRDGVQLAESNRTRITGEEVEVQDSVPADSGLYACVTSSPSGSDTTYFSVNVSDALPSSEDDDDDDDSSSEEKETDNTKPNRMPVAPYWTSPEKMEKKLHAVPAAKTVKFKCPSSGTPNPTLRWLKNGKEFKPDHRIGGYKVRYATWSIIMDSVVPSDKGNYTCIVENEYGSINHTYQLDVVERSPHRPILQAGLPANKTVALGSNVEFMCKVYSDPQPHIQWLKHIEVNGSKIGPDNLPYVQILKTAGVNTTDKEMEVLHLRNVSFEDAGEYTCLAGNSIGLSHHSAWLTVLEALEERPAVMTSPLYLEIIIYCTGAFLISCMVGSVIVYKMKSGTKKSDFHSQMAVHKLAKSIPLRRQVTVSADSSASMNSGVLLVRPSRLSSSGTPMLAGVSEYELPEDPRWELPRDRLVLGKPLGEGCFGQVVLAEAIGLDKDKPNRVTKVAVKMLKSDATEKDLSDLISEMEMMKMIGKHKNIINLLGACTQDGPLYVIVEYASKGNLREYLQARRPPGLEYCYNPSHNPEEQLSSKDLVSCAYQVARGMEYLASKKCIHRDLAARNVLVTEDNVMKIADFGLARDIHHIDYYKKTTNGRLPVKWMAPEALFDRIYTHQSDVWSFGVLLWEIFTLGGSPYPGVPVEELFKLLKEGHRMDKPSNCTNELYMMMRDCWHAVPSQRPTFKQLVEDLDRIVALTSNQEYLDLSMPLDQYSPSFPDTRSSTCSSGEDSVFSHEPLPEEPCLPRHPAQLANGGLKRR

SMILES	IC50 [1, 9]	IC50 [2]	IC50 ([3]; Table 1, ATP 50 μM)	IC50 ([4]; Table 1, ATP 50 μM)	IC50 [1, 10]	IC50 ([3]; Table 2, ATP 50 μM)	IC50 ([4]; Table 2, ATP 50 μM)	further results
O=C(Nc1ccc(-c2ccc(NC(=O)C3CC3)nc2)cc1)Nc1ccc(C(F)(F)F)c(Cl)c1 [CDAU-5]	61.3 nM	152 µM	5.52 nM	> 1000 nM				
Cc1ccc(NC(=O)Nc2ccc(-c3cccc(NC(=O)C4CC4)n3)cc2)cc1Cl [CDAU-13]					271 nM	> 1000 nM	> 1000 nM	
O=C(Nc1ccc(-c2ccc(NC(=O)C3CC3)nc2)cc1)Nc1cccc(C(F)(F)F)c1 [CDAU-1, N-(5-(4-(3-(3-(trifluoromethyl)phenyl)ureido)phenyl)pyridin-2-yl)cyclopropanecarboxamide]	7.2 nM	16.1 µM	1.11 nM	5.34 nM				IC50 [5]: 57.2 nM; IC50 [6]: 155 nM; IC50 [7]: > 500 nM; melting point: 270 to 272 °C; IC50 [8]: 204 nM
O=C(Nc1ccc(OC(F)(F)F)cc1)Nc1ccc(-c2ccc(NC(=O)C3CC3)nc2)cc1 [CDAU-8]	> 1000 nM		> 1000 nM	> 1000 nM				
O=C(Nc1ccc(-c2ccc(NC(=O)C3CC3)nc2)cc1)Nc1ccc(F)c(F)c1 [CDAU-4]	> 1000 nM	85 µM	1.42 nM					
O=C(Nc1ccc(F)cc1)Nc1ccc(-c2cccc(NC(=O)C3CC3)n2)cc1 [CDAU-14]					32.9 nM		> 1000 nM	
CC(C)(C)NC(=O)Nc1ccc(-c2ccc(NC(=O)C3CC3)nc2)cc1 [CDAU-9]	858 nM		> 1000 nM	> 1000 nM				
CC(C)c1cccc(NC(=O)Nc2ccc(-c3cccc(NC(=O)C4CC4)n3)cc2)c1 [CDAU-17]		133 µM				63 nM	170 nM	
O=C(Nc1ccc(OC(F)(F)F)cc1)Nc1ccc(-c2cccc(NC(=O)C3CC3)n2)cc1 [CDAU-19]		31 µM				34 nM	> 1000 nM	
O=C(Nc1ccc(-c2cccc(NC(=O)C3CC3)n2)cc1)Nc1ccc(F)cc1F [CDAU-22]					> 1000 nM	> 1000 nM		
O=C(Nc1ccc(-c2ccc(NC(=O)C3CC3)nc2)cc1)Nc1cccc(Cl)c1 [CDAU-6]	32.9 nM	880 µM	23.3 nM	948 nM				
O=C(Nc1ccc(-c2cccc(NC(=O)C3CC3)n2)cc1)Nc1ccc(Cl)cc1Cl [CDAU-20]		45.7 µM			78.8 nM	42.7 nM		
CN(C)C(=O)Nc1ccc(-c2ccc(NC(=O)C3CC3)nc2)cc1 [CDAU-11]	> 1000 nM		> 1000 nM	> 1000 nM				
CC(C)(C)c1ccc(NC(=O)Nc2ccc(-c3cccc(NC(=O)C4CC4)n3)cc2)cc1 [CDAU-15]					> 1000 nM	28 nM		
Cc1cccc(C)c1NC(=O)Nc1ccc(-c2cccc(NC(=O)C3CC3)n2)cc1 [CDAU-25]					> 1000 nM		> 1000 nM	
O=C(Nc1ccc(-c2cccc(NC(=O)C3CC3)n2)cc1)Nc1ccc(Cl)c(C(F)(F)F)c1 [CDAU-12, N-(6-(4-(3-(4-chloro-3-(trifluoromethyl)phenyl)ureido)phenyl)pyridin-2-yl)cyclopropanecarboxamide]					> 1000 nM	> 1000 nM	> 1000 nM	
O=C(Nc1ccc(-c2cccc(NC(=O)C3CC3)n2)cc1)Nc1ccccc1F [CDAU-23]					> 1000 nM	> 1000 nM		
O=C(Nc1ccc(-c2cccc(NC(=O)C3CC3)n2)cc1)Nc1cccc(Cl)c1 [CDAU-18]		22.6 µM			4.92 nM		> 1000 nM	
O=C(Nc1ccc(-c2cccc(NC(=O)C3CC3)n2)cc1)Nc1ccccc1Cl [CDAU-16]					> 1000 nM	73.4 nM	> 1000 nM	
O=C(Nc1ccc(-c2cccc(NC(=O)C3CC3)n2)cc1)Nc1cccc(C(F)(F)F)c1 [CDAU-21]		40.5 µM			42.8 nM	6.27 nM	162 nM	
O=C(Nc1ccc(-c2cccc(NC(=O)C3CC3)n2)cc1)Nc1cccc(F)c1 [CDAU-24]					> 1000 nM	> 1000 nM		
CN(C)CCNC(=O)Nc1ccc(-c2ccc(NC(=O)C3CC3)nc2)cc1 [CDAU-10]	> 1000 nM	> 1000 µM	> 1000 nM	> 1000 nM				
O=C(Nc1ccc(-c2ccc(NC(=O)C3CC3)nc2)cc1)Nc1ccc(C(F)(F)F)c(C(F)(F)F)c1 [CDAU-3]	27.5 nM	309 µM	2 nM	> 1000 nM				melting point: 241 to 243 °C
O=C(Nc1ccc(-c2ccc(NC(=O)C3CC3)nc2)cc1)Nc1ccccc1F [CDAU-7]	> 1000 nM	46.2 µM	> 1000 nM	> 1000 nM				
